Where “and” joins values, the source holds several entries; their conditions need not be identical. Identical values can stand only once. Marks after values point to notes of the source that are not given here.
Tests used:
[1] = test system: atopic dermatitis animal model; assay: Atopic dermatitis animal model (dinitrochlorobenzene induced); assay type: in vivo, BALB/C mice; conditions: for Inhibition rate of auricular thickening / Inhibition rate of skin thickening: 10th day of treatment
Excerpt: BALB/C mice, 55 pieces, female, were 6 weeks old at the time of purchase and 8 weeks old at the time of experiment, weighing 18 g-20 g. The animals were from Shanghai Lingchang Biotechnology Co, Ltd (SCXK (Shanghai) 2018-0003), experimental animal production certificate number 20180003012342: experimental animal use license number; SYXK(Shanghai)2020-0001 (Via Biotechnology (Shanghai) Ltd.).
Modeling and administration method; Use depilatory cream to remove the hair of an area of about 5 cm×2 cm from the top of the head to the back of each animal. The application time of the depilatory cream should be controlled within 2 minutes. Wash the depilated area with warm water and wash off the depilatory agent, immediately use a hair dryer to dry the animal's hair, and place the animal on a 37° C. constant-temperature electric blanket for 1 h-2 h. After the animal moves freely, place it in a breeding cage and recover for 1 day (if the animal's skin is red, swollen and damaged after hair removal, it will its elimination). On the second day, 42 animals with normal skin were selected and randomly divided into groups according to body weight, with 6 animals in each group, totaling 7 groups. Except for the G1 normal control group, each animal in the other groups was evenly smeared with 200 μL of 0.5 wt % dinitrochlorobenzene solution (the solvent was acetone and olive oil with a mass ratio of 3:1) on the back and auricle for three consecutive days every day. Induction (the first stage of induction), the second stage of induction started after 14 days, and was induced with 1 wt % dinitrochlorobenzene solution (the solvent was acetone and olive oil with a mass ratio of 3:1) every three days until the end of the experiment, start treatment and administration at the same time, and group administration is shown in Table 6.
Skin thickness (double layer): Use a vernier caliper to measure the double layer thickness of the back skin on the 1 day before modeling, and on the 14th, 17th, 20th, 23rd, 26th, and 28th days after modeling.
Auricle thickness: Use a vernier caliper to measure the thickness of the right auricle 1 day before modeling, and on days 14, 17, 20, 23, 26, and 28 after modeling.
AD-SI score: The condition score refers to the clinical SI scoring standard, and scores three indicators: skin color/erythema, scaly erythema, scaly/peeling/lichenification, thickening, and thickening/edema degree. The total score is 12 points. Scoring standard as follows:
Erythema/skin color: 0 points, none; 1 points, slight: light red; 2 points, moderate: red; 3 points, significant: dark red; 4 points, very obvious: extremely deep red.
Scaling/peeling/lichenification: 0 points, none; 1 point, slight: there are scales/peeling/lichenification on part of the epidermis, mainly subtle; 2 points, moderate: most of the skin surface is completely or incompletely covered with Scaling/peeling/lichenification, flaky; 3 points, significant: almost all skin is covered with scales/peeling/lichenification, and the scales/peeling/lichenification are thick and layered; 4 points, very obvious: all skin is covered with Scaling/peeling/lichenification, very thick and layered.
Thickening/edema: 0 points, none: flush with normal skin; 1 points, slight: slightly higher than the normal skin surface: 2 points, moderate: moderately raised, with round or sloped plaque edges: 3 points, obvious Score: The plaque is hypertrophic and the bulge is obvious; 4 points, very significant: it is highly thickened and the bulge is very obvious. Skin/auricle hyperplasia inhibition rate (%)=1−[(skin/auricle thickness of the treatment group−skin/auricle thickness of the blank control group)/skin/auricle thickness of the negative control group−skin/auricle of the blank control group thickness)]%.
All data are expressed as Mean±SD or Mean±SEM. Use the statistical analysis software SPSS23.0 to conduct normal distribution and homogeneity of variance tests on the data. […]

[2] = Hygroscopicity experiment; assay type: physicochemical; conditions: Chinese Pharmacopoeia 2020, General Chapter 9103
Description: The hygroscopicity data of the samples were collected using the ADVENTURE series dynamic gas phase adsorption instrument under N2 protection. The sample dosage is about 30 mg.
The hygroscopicity of the above crystalline form was determined with reference to the 2020 edition of the Chinese Pharmacopoeia, General Chapter 9103, Guidelines for Drug Hygroscopicity Tests.

[3] = Suspension competition experiment; assay type: physicochemical; conditions: compared with crystalline form O and crystalline form P; room temperature and 60° C.
Description: Place them at room temperature and 60° C. with magnetic stirring for about 1 hour respectively. […] Solids are used for XRPD testing.

[4] = 3 mg/kg oral twice a day, Day 0
[5] = 3 mg/kg oral twice a day, Day 1
[6] = 3 mg/kg oral twice a day, Day 4
[7] = 3 mg/kg oral twice a day, Day 7
[8] = 3 mg/kg oral twice a day, Day 10
[9] = 10 mg/kg oral twice a day, listed as crystalline form A
[10] = 10 mg/kg oral twice a day, Day 0
[11] = 10 mg/kg oral twice a day, Day 1
[12] = 10 mg/kg oral twice a day, Day 4
[13] = 10 mg/kg oral twice a day, Day 7
[14] = 10 mg/kg oral twice a day, Day 10
[15] = 10 mg/kg oral twice a day, Day 10, listed as crystalline form A
[16] = 30 mg/kg oral twice a day, listed as crystalline form A
[17] = 30 mg/kg oral twice a day, Day 0
[18] = 30 mg/kg oral twice a day, Day 1
[19] = 30 mg/kg oral twice a day, Day 4
[20] = 30 mg/kg oral twice a day, Day 7
[21] = 30 mg/kg oral twice a day, Day 10
[22] = 30 mg/kg oral twice a day, Day 10, listed as crystalline form A

## C[C@@H](O)c1nc2cnc3[nH]ccc3c2n1N1CCC(CC#N)CC1 [Crystalline form A, (R)-2-(1-(2-(1-hydroxyethyl)imidazo[4,5-d]pyrrolo[2,3-b]pyridine-1(6H)-yl)piperidin-4-yl)acetonitrile]
[1]; 3 mg/kg oral twice a day
  Inhibition rate of auricular thickening: 37.93%
  Inhibition rate of skin thickening: 14.43%
[1]; [4]
  AD-SI score: 0.00 points
  Average auricle thickness: 0.20 ± 0.00 mm
  Average skin thickness (double layer): 0.63 ± 0.01 mm
[1]; [5]
  AD-SI score: 0.00 points
  Average auricle thickness: 0.22 ± 0.01 mm
  Average skin thickness (double layer): 0.98 ± 0.01 mm
[1]; [6]
  AD-SI score: 1.00 ± 0.00 points
  Average auricle thickness: 0.30 ± 0.01 mm
  Average skin thickness (double layer): 1.08 ± 0.01 mm
[1]; [7]
  AD-SI score: 6.50 ± 1.05 points
  Average auricle thickness: 0.39 ± 0.03 mm
  Average skin thickness (double layer): 1.85 ± 0.12 mm
[1]; [8]
  AD-SI score: 5.83 ± 0.75 points
  Average auricle thickness: 0.57 ± 0.04 mm and 0.57 mm
  Average skin thickness (double layer): 2.35 ± 0.15 mm and 2.35 mm
[1]; 10 mg/kg oral twice a day
  Inhibition rate of auricular thickening: 43.10%
  Inhibition rate of skin thickening: 20.40%
[1]; [9]
  Inhibition rate of auricular thickening: 43.1%
  Inhibition rate of skin thickening: 20.4%
[1]; [10]
  AD-SI score: 0.00 points
  Average auricle thickness: 0.20 ± 0.01 mm
  Average skin thickness (double layer): 0.60 ± 0.02 mm
[1]; [11]
  AD-SI score: 0.00 points
  Average auricle thickness: 0.23 ± 0.01 mm
  Average skin thickness (double layer): 0.94 ± 0.02 mm
[1]; [12]
  AD-SI score: 0.50 ± 0.55 points
  Average auricle thickness: 0.32 ± 0.01**^ mm
  Average skin thickness (double layer): 1.14 ± 0.04 mm
[1]; [13]
  AD-SI score: 5.83 ± 1.17 points
  Average auricle thickness: 0.43 ± 0.03 mm
  Average skin thickness (double layer): 1.49 ± 0.09 mm
[1]; [14]
  AD-SI score: 4.67 ± 0.52 points
  Average auricle thickness: 0.54 ± 0.07 mm and 0.54 mm
  Average skin thickness (double layer): 2.23 ± 0.17 mm and 2.23 mm
[1]; [15]
  AD-SI score: 4.67 points
  Average auricle thickness: 0.54 mm
  Average skin thickness (double layer): 2.23 mm
[1]; 30 mg/kg oral twice a day
  Inhibition rate of auricular thickening: 50.00%
  Inhibition rate of skin thickening: 53.73%
[1]; [16]
  Inhibition rate of auricular thickening: 50%
  Inhibition rate of skin thickening: 53.73%
[1]; [17]
  AD-SI score: 0.00 points
  Average auricle thickness: 0.21 ± 0.01 mm
  Average skin thickness (double layer): 0.62 ± 0.02 mm
[1]; [18]
  AD-SI score: 0.00 points
  Average auricle thickness: 0.22 ± 0.01 mm
  Average skin thickness (double layer): 0.79 ± 0.05 mm
[1]; [19]
  AD-SI score: 0.50 ± 0.55 points
  Average auricle thickness: 0.29 ± 0.02 mm
  Average skin thickness (double layer): 1.05 ± 0.03 mm
[1]; [20]
  AD-SI score: 3.00 ± 2.19 points
  Average auricle thickness: 0.32 ± 0.01 mm
  Average skin thickness (double layer): 1.01 ± 0.08 mm
[1]; [21]
  AD-SI score: 3.50 ± 1.39 points
  Average auricle thickness: 0.50 ± 0.03 mm and 0.50 mm
  Average skin thickness (double layer): 1.56 ± 0.21 mm and 1.56 mm
[1]; [22]
  AD-SI score: 3.5 points
  Average auricle thickness: 0.5 mm
  Average skin thickness (double layer): 1.56 mm
[2]
  hygroscopicity class: no or almost no hygroscopicity
  weight gain (hygroscopicity): 0.05%
[3]
  stability in suspension competition: more stable
